Test results from US8916570B2 (The United States of America, as represented by the …, priority 2008, dated 2014).

Experiments:
[1] = molecular target: human A2A adenosine receptor (Homo sapiens, UniProt P29274); test: Radioligand binding, human A2A AR (Table 1); conditions: for inhibition at 10 µM: read-out: A2A % inhib.
[2] = molecular target: T1, human A1 adenosine receptor (Homo sapiens, UniProt P30542); test: Radioligand binding, human A1 AR, CHO membranes (Table 1); conditions: for A1 % inhib.: species H (human), percent in parentheses, concentration not marked
T1 sequence (P30542 1-326): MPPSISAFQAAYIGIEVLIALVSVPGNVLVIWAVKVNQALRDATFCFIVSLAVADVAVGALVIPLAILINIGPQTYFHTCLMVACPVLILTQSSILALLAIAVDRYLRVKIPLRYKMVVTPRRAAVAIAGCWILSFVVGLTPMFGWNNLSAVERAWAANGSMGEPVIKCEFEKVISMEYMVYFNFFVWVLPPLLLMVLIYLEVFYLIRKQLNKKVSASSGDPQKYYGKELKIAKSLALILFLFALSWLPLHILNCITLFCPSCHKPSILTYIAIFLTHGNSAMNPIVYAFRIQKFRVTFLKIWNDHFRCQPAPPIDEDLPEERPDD

[3] = molecular target: T2, human A3 adenosine receptor (Homo sapiens, UniProt P0DMS8); test: [125I]I-AB-MECA binding, human A3 AR, CHO membranes (Table 1); conditions: for Ki: A3 Ki, species H (human); for Selectivity A1/A3: human
T2 sequence (P0DMS8 1-318): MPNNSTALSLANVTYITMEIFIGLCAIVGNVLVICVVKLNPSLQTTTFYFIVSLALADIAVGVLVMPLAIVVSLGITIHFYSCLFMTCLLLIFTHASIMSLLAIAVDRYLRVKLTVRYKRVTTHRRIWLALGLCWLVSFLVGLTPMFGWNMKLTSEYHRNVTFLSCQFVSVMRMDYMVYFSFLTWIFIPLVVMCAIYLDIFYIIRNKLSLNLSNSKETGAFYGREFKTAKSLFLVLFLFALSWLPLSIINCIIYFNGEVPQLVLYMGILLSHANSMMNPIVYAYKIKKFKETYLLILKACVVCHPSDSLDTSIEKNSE

[4] = molecular target: T3, mouse A1 adenosine receptor (Mus musculus, UniProt Q60612); test: Competition radioligand binding, mouse A1 AR, HEK293 membranes (Table 1)
T3 sequence (Q60612 1-326): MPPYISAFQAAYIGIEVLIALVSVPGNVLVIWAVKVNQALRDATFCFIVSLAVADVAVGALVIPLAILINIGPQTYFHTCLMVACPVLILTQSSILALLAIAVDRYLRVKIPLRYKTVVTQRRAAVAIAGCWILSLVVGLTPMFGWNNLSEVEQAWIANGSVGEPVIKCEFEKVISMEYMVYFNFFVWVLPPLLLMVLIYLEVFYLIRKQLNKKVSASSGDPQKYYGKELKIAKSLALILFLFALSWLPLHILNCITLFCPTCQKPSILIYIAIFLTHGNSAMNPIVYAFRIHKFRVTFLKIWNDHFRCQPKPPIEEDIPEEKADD

[5] = molecular target: T4, mouse A3 adenosine receptor (Mus musculus, UniProt Q61618); test: Competition radioligand binding, mouse A3 AR, HEK293 membranes (Table 1); conditions: for Ki: A3 Ki, species M (mouse), [125I]I-AB-MECA; for Selectivity A1/A3: mouse
T4 sequence (Q61618 1-319): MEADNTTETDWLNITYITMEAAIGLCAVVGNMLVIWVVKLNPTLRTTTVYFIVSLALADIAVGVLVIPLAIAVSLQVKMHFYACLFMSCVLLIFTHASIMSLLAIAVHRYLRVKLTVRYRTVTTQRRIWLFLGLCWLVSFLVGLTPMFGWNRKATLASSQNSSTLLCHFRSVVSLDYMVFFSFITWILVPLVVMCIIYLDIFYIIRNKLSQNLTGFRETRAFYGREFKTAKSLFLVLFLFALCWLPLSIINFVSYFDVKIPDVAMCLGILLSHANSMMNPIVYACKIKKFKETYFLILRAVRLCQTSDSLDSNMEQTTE

[6] = molecular target: mouse A2A adenosine receptor (Mus musculus, UniProt Q60613); test: Competition radioligand binding, mouse A2A AR, HEK293 membranes (Table 1); conditions: for inhibition at 100 µM: read-out: A2A % inhib.
human A3AR = molecular target: T5, human A3AR (Homo sapiens, UniProt P0DMS8); test: Inhibition of forskolin-stimulated cyclic AMP production in AR transfected CHO cells (Table 1); type: cell-based; conditions: CHO; read-out: % Efficacy at the human A3 AR
T5 construct: expressed in transfected cells; host or cells: CHO
T5 sequence (P0DMS8 1-318): T2 sequence (P0DMS8 1-318)

hA1AR = molecular target: T6, hA1AR (Homo sapiens, UniProt P30542); test: Binding at hA1AR, CHO membranes (Example 7); conditions: read-out: % inhibition hA1
T6 construct: expressed in transfected cells; host or cells: CHO
T6 sequence (P30542 1-326): T1 sequence (P30542 1-326)

hA2AAR = molecular target: T7, hA2AAR (Homo sapiens, UniProt P29274); test: Binding at hA2AAR, HEK-293 membranes (Example 7); conditions: read-out: % inhibition hA2A
T7 construct: expressed in transfected cells
Procedure: After harvesting, cells were homogenized and suspended in PBS.
Nonspecific binding was determined using a final concentration of 10 μM 51 diluted with the buffer.

mA1AR = molecular target: T8, mA1AR (Mus musculus, UniProt Q60612); test: Competition binding at mA1AR, HEK293 membranes (Example 8); conditions: percent in parentheses, concentration not given
T8 construct: expressed in transfected cells
T8 sequence (Q60612 1-326): T3 sequence (Q60612 1-326)

mA3AR = molecular target: T9, mA3AR (Mus musculus, UniProt Q61618); test: Competition binding at mA3AR, HEK293 membranes (Example 8); conditions: read-out: Affinity (Ki, nM) mA3
T9 construct: expressed in transfected cells
T9 sequence (Q61618 1-319): T4 sequence (Q61618 1-319)

human A2A adenosine receptor, sequence (P29274 whole entry): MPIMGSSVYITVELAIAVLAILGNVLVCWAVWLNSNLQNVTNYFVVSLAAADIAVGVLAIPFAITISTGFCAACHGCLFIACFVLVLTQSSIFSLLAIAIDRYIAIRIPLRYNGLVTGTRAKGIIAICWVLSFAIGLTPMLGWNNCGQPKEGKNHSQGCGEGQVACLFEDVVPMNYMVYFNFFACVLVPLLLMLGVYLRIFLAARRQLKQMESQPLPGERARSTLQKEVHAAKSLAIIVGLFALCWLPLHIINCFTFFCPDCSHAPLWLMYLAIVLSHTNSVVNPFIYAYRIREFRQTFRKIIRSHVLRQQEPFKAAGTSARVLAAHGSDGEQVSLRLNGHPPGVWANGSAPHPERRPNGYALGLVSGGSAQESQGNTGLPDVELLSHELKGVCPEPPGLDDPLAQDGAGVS
mouse A2A adenosine receptor, sequence (Q60613 whole entry): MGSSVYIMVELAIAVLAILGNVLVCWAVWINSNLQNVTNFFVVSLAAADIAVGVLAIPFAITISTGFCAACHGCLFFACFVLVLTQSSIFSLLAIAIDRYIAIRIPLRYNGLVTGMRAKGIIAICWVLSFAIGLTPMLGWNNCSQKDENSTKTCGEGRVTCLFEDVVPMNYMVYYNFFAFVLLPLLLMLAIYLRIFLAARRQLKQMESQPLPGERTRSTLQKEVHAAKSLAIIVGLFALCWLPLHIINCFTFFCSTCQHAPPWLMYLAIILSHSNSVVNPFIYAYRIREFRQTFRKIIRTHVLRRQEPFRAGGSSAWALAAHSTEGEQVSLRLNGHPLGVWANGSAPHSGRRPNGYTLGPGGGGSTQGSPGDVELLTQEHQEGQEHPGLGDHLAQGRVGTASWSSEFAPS
T7 sequence (P29274 whole entry): as the sequence (P29274 whole entry) above

SMILES	inhibition at 10 µM [1]	Ki [3]	inhibition at 100 µM [6]	Emax at 10 µM (human A3AR)	Ki [2]	Ki [4]	Ki [5]	Selectivity A1/A3 [5]	also measured
CNC(=O)C12CC1C(n1cnc3c(NOC)nc(Cl)nc31)C(O)C2O (stereo not drawn) [Compound 21, (1′S,2′R,3′S,4′S,5′S)-4′-[6-Methoxyamino-2-chloropurin-9-yl]-2′,3′-dihydroxybicyclo[3.1.0]hexane-1′-carboxylic acid N-methylamide]	2%	0.149 ± 0.015 µM	2%	–	0.265 ± 0.045 µM	1.16 ± 0.13 µM	0.877 ± 0.149 µM	1.3	Selectivity A1/A3 [3]: 1.8
CNC(=O)C12CC1C(n1cnc3c(NCc4cc(OC)ccc4OC)nc(I)nc31)C(O)C2O (stereo not drawn) [Compound 2, (1′S,2′R,3′S,4′S,5′S)-4′-[6-(2,5-Dimethoxybenzylamino)-2-iodopurin-9-yl]-2′,3′-dihydroxybicyclo[3.1.0]hexane-1′-carboxylic acid N-methylamide]	35%	–	14%	–	–	–	–	–	–
CNC(=O)C12CC1C(n1cnc3c(NCc4cccc(Cl)c4)nc(C#CCCCC(=O)OC)nc31)C(O)C2O (stereo not drawn) [Compound 6, (1′S,2′R,3′S,4′S,5′S)-4′-[6-(3-Chlorobenzylamino)-2-(5-methoxycarbonyl-1-pentynyl)-9-yl]-2′,3′-dihydroxybicyclo[3.1.0]hexane-1′-carboxylic acid N-methylamide]	49%	–	50%	–	0.482 ± 0.023 µM	1.34 ± 0.33 µM	0.00465 ± 0.00053 µM	–	–
CNC(=O)C12CC1C(n1cnc3c(NCc4cccc(Cl)c4)nc(C#CCCC(=O)NCCCCN)nc31)C(O)C2O (stereo not drawn) [Compound 40, (1′S, 2′R, 3′S, 4′S, 5′S)-4′-[6-(3-Chlorobenzylamino)-2-(4-(β-aminobutylaminocarbonyl)-1-butynyl)-9-yl]-2′,3′-dihydroxybicyclo[3.1.0]hexane-1′-carboxylic acid N-methylamide]	–	0.0021 ± 0.0004 µM	–	102 ± 13%	–	–	–	–	Ki [1]: 0.766 ± 0.109 µM; Selectivity A1/A3 [3]: up to 1900
CNC(=O)C12CC1C(n1cnc3c(NC4CCCC4)nc(Cl)nc31)C(O)C2O (stereo not drawn) [Compound 32]	–	–	–	101%	0.0183 ± 0.0063 µM	–	–	–	Ki [1]: 3.25 ± 0.3 µM
CNC(=O)C12CC1C(n1cnc3c(NCc4cccc(Cl)c4)nc(SC)nc31)C(O)C2O (stereo not drawn) [Compound 20]	–	0.0015 µM	32%	–	0.61 µM	0.0989 ± 0.0188 µM	0.00119 ± 9e-05 µM	83	Ki [1]: 10 µM
CNC(=O)C12CC1C(n1cnc3c(NCc4cccc(C#CCCCC(=O)NCCN)c4)nc(Cl)nc31)C(O)C2O (stereo not drawn) [Compound 10]	58%	0.00521 µM	39%	–	0.271 ± 0.023 µM	0.151 ± 0.018 µM	0.0119 ± 0.0024 µM	13	Selectivity A1/A3 [3]: 52
CNC(=O)[C@@]12C[C@@H]1[C@@H](n1cnc3c(NCc4cccc(Cl)c4)nc(C#Cc4ccc(F)cc4)nc31)[C@H](O)[C@@H]2O [Compound 328, (1S,2R,3S,4R,5S)-4-(6-(3-Chlorobenzylamino)-2-((4-fluorophenyl)ethynyl)-9H-purin-9-yl)-2,3-dihydroxy-N-methylbicyclo[3.1.0]hexane-1-carboxamide]	–	–	–	–	–	–	–	–	inhibition at 10 µM (hA1AR): 19%; inhibition at 10 µM (hA2AAR): 42%; % inhibition mA1 (mA1AR): (39%); Ki (mA3AR): 7.5 nM
CNC(=O)C12CC1C(n1cnc3c(NCC(c4ccccc4)c4ccccc4)nc(Cl)nc31)C(O)C2O (stereo not drawn) [Compound 18]	–	–	–	–	–	0.00683 ± 0.0015 µM	0.00167 ± 9e-05 µM	4.1	Ki [6]: 1.81 ± 0.581 µM
CNC(=O)C12CC1C(n1cnc3c(NCc4cccc(Cl)c4)nc(C#CCCC(=O)NCCNC(=O)CCCCCNC(=O)CCCCC4SCC5NC(=O)NC54)nc31)C(O)C2O (stereo not drawn) [Compound 43, (1′S,2′R,3′S,4′S,5′S)-4′-[6-(3-Chlorobenzylamino)-2-(N-biotinyl {5-aminopentanyl}(β-aminoethylaminocarbonyl)-1-butynyl)-9-yl]-2′,3′-dihydroxybicyclo[3.1.0]hexane-1′-carboxylic acid N-methylamide]	–	0.0577 ± 0.0162 µM	–	106 ± 17.7%	–	–	–	–	A1 % inhib. [2]: (8 ± 4%)
CNC(=O)[C@@]12C[C@@H]1[C@@H](n1cnc3c(NCc4cccc(Cl)c4)nc(C#Cc4ccccc4)nc31)[C@H](O)[C@@H]2O [Compound 327, (1S,2R,3S,4R,5S)-4-(6-(3-Chlorobenzylamino)-2-(phenylethynyl)-9H-purin-9-yl)-2,3-dihydroxy-N-methylbicyclo[3.1.0]hexane-1-carboxamide]	–	–	–	–	–	–	–	–	inhibition at 10 µM (hA1AR): 18%; inhibition at 10 µM (hA2AAR): 27%; % inhibition mA1 (mA1AR): (41%); Ki (mA3AR): 16 nM
CNC(=O)C12CC1C(n1cnc3c(NCc4cccc(Cl)c4)nc(C#C[Si](C)(C)C)nc31)C(O)C2O (stereo not drawn) [Compound 4, (1′S,2′R,3′S,4′S,5′S)-4′-[6-(3-Chlorobenzylamino)-2-trimethylsilylethynyl-9-yl]-2′,3′-dihydroxybicyclo[3.1.0]hexane-1′-carboxylic acid N-methylamide]	52%	0.00098 ± 0.00014 µM	20%	–	0.16 ± 0.04 µM	0.159 ± 0.022 µM	0.00446 ± 0.00057 µM	35.6	Selectivity A1/A3 [3]: 160

More lines, main results first:

inhibition at 10 µM [1]	Ki [3]	inhibition at 100 µM [6]	Emax at 10 µM (human A3AR)	SMILES	Ki [2]	Ki [4]	Ki [5]	Selectivity A1/A3 [5]	also measured
81%	0.00217 ± 0.00051 µM	31%	–	CNC(=O)C12CC1C(n1cnc3c(NCc4cccc(Cl)c4)nc(C#CCCCC(=O)NCCN)nc31)C(O)C2O (stereo not drawn) [Compound 8]	0.454 ± 0.044 µM	0.546 ± 0.062 µM	0.0086 ± 0.00102 µM	64	Selectivity A1/A3 [3]: 209
–	0.0611 ± 0.0358 µM	–	106 ± 17.7%	CNC(=O)C12CC1C(n1cnc3c(NCc4cccc(Cl)c4)nc(C#CCCC(=O)O)nc31)C(O)C2O (stereo not drawn) [Compound 33]	–	–	–	–	–
–	0.0111 ± 0.0023 µM	–	90 ± 6.2%	CNC(=O)C12CC1C(n1cnc3c(NCc4cccc(Cl)c4)nc(C#CCCCCC(=O)OC)nc31)C(O)C2O (stereo not drawn) [Compound 36]	–	–	–	–	Ki [1]: 3.54 ± 1.37 µM; A1 % inhib. [2]: (21 ± 8%)
–	0.0055 ± 0.0003 µM	–	74.4 ± 5.1%	CNC(=O)C12CC1C(n1cnc3c(NCc4cccc(Cl)c4)nc(C#CCCC(=O)OC)nc31)C(O)C2O (stereo not drawn) [Compound 35]	–	–	–	–	A1 % inhib. [2]: (19 ± 3%)
14%	–	5%	–	CNC(=O)C12CC1C(n1cnc3c(NCc4cccc(C#CCCCC(=O)O)c4)nc(Cl)nc31)C(O)C2O (stereo not drawn) [Compound 9]	–	–	–	–	–
80%	–	68%	–	CNC(=O)C12CC1C(n1cnc3c(NCc4cccc(C#CCCCC(=O)NCCNC(C)=O)c4)nc(Cl)nc31)C(O)C2O (stereo not drawn) [Compound 11]	–	–	–	–	–
